Test results: ChEMBL document CHEMBL1201862, “PubChem BioAssay data set” (2004)
Active and inactive are the calls of the source. Rule as the data show it, for most assays here: actives have a measured IC50 and inactives only a lower limit.

Tests used:
Bcl-2-related protein A1 = biological target: T1, Bcl-2-related protein A1 (Mus musculus, UniProt Q07440); format: functional;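 also: confirmatory dose–response counterscreen on Bfl-1, used to check hits from a UBC13 polyubiquitin inhibitor campaign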
T1 sequence (Q07440 whole entry): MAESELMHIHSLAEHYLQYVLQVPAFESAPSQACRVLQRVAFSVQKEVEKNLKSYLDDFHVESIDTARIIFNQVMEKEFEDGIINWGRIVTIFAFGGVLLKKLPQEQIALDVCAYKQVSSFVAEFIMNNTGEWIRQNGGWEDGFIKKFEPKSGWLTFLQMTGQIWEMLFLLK

HEK293 [1] = experiment: membrane integrity loss in HEK cells – cell-based, fluorescence, cytotoxicity control for IDE activator project, dose response (AID 588440); format: functional; settings: Homo sapiens;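 also: cytotoxicity by LDH release measuring loss of membrane integrity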
[2] = biological target: T2, Ubiquitin-conjugating enzyme E2 N (Homo sapiens, UniProt P61088); format: functional
T2 sequence (P61088 whole entry): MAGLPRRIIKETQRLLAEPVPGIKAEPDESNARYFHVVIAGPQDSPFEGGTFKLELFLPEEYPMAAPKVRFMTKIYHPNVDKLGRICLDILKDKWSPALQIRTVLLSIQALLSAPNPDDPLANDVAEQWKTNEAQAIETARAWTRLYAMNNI

[3] = biological target: T2, Ubiquitin-conjugating enzyme E2 N; format: functional; remark: listed apart in the source
HEK293 [4] = experiment: optical interference in Abeta FP readout, dose response, artefact control for IDE activator project, biochemical, fluorescence polarization (AID 588442); format: functional, cell-based; settings: Homo sapiens
Insulin-degrading enzyme [5] = biological target: T3, Insulin-degrading enzyme (Homo sapiens, UniProt P14735); experiment: cellular IDE activation of Abeta substrate cleavage – fluorescence polarization, HEK cells, dose response (AID 588439); format: functional, cell-based
T3 sequence (P14735 whole entry): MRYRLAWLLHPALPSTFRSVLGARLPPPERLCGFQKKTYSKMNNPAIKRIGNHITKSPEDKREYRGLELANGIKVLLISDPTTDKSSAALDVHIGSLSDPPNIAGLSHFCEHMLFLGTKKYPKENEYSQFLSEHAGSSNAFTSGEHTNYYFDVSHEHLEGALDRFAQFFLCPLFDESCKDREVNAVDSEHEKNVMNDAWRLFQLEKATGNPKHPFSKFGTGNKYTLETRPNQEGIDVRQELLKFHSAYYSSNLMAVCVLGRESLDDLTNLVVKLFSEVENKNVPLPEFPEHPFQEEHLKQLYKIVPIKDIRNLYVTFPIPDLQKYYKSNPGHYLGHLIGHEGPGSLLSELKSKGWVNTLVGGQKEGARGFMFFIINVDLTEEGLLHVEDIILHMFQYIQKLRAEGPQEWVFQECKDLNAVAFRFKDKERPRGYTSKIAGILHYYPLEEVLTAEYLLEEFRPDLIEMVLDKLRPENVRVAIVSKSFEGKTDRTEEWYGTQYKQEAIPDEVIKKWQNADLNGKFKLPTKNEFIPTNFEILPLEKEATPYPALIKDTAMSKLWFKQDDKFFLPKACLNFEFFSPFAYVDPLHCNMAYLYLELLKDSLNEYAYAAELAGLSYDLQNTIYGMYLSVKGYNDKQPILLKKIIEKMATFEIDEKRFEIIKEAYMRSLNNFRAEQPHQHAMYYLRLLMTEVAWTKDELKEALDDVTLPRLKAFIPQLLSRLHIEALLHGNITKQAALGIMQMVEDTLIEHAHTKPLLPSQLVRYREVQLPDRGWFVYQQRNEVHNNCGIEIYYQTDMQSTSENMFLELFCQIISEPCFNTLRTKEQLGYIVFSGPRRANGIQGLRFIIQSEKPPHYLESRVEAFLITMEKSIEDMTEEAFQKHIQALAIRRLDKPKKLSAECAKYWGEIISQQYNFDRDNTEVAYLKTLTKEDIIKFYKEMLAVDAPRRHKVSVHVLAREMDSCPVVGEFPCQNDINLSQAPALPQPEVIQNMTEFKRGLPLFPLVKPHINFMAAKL

Insulin-degrading enzyme [6] = biological target: T3, Insulin-degrading enzyme; experiment: recombinant IDE activation, cell-free – biochemical, fluorescence polarization, counter-screen for IDE activator project, dose response (AID 588681)
[7] = biological target: T4, Sentrin-specific protease 8 (Homo sapiens, UniProt Q96LD8); experiment: inhibition of sentrin protease 8 – biochemical, luminescence, set 2, SAR follow-up (AID 588601); format: functional
T4 sequence (Q96LD8 whole entry): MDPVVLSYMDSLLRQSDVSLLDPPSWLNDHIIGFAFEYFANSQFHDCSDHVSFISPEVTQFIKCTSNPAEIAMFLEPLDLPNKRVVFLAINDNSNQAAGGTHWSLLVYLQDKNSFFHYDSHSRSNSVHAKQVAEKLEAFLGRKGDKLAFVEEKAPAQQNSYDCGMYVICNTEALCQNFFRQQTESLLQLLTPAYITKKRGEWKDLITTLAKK

[8] = biological target: T5, Sentrin-specific protease 7 (Homo sapiens, UniProt Q9BQF6); experiment: inhibition of human SENP7 cleavage activity – biochemical, luminescence, set 2, SAR follow-up (AID 588600); format: functional
T5 sequence (Q9BQF6 whole entry): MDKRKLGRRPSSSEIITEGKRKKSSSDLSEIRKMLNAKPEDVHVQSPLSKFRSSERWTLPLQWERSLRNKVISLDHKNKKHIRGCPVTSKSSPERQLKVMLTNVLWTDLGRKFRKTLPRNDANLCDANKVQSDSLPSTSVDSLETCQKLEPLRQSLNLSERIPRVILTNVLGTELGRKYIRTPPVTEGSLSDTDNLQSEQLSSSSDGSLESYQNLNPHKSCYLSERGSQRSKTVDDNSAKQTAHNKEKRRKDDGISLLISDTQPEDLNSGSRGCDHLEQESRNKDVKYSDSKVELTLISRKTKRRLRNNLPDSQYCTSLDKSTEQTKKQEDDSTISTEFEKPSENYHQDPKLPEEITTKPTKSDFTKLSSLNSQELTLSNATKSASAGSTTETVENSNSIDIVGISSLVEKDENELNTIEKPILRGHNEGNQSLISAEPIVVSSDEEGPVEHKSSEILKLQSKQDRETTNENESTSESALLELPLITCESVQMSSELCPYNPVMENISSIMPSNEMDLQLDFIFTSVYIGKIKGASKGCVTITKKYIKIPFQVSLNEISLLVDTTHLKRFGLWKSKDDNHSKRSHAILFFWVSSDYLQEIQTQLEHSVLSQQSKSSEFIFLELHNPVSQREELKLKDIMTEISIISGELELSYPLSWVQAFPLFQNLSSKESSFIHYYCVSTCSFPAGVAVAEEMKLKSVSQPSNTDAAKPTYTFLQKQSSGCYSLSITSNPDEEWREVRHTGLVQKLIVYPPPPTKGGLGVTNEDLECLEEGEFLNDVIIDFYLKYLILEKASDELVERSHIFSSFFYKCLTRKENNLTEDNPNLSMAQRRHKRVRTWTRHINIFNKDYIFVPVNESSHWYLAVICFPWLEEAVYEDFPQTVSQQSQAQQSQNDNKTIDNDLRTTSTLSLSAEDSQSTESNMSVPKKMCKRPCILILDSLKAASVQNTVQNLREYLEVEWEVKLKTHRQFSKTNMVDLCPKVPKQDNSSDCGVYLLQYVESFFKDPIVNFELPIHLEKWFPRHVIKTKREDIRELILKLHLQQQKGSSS

[9] = biological target: T6, Sentrin-specific protease 6 (Homo sapiens, UniProt Q9GZR1); experiment: SAR Analysis of small molecule inhibitors of Sentrin-specific protease 6 (SENP6) using a Luminescent assay. [Related pubchem assays (depositor defined):AID2582, AID2599]; format: functional
T6 sequence (Q9GZR1 whole entry): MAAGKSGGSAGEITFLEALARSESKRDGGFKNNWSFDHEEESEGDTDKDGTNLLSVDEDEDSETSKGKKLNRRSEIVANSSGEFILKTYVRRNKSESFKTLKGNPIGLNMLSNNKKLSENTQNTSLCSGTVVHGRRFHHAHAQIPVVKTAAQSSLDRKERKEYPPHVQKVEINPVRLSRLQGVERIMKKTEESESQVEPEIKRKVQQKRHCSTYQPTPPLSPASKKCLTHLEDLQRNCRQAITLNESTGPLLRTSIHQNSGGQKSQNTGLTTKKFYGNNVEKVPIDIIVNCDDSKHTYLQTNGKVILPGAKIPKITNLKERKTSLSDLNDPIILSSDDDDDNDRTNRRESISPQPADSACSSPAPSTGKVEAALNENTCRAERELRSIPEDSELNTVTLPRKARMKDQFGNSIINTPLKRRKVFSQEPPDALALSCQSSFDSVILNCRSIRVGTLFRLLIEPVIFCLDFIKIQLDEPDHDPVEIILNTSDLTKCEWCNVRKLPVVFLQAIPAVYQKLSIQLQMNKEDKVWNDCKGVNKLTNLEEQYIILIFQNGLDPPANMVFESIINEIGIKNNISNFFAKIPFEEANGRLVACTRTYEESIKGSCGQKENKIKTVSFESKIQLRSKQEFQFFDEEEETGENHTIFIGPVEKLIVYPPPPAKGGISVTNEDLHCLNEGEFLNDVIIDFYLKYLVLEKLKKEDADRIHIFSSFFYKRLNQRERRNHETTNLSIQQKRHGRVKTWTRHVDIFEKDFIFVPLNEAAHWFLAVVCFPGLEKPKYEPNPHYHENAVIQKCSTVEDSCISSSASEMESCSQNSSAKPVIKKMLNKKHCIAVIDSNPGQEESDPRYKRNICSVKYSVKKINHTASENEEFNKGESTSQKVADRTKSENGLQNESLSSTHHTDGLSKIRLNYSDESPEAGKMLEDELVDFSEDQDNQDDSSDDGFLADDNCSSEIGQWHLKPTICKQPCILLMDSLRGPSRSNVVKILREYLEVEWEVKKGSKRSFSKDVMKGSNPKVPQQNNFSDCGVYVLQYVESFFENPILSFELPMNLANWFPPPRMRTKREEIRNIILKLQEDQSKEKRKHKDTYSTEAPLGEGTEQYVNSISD

[10] = biological target: T6, Sentrin-specific protease 6; experiment: inhibition of human SENP6 catalytic domain – biochemical, luminescence, set 2, SAR follow-up (AID 588598); format: functional
[11] = biological target: T5, Sentrin-specific protease 7; experiment: inhibition of human SENP7 cleavage activity – biochemical, luminescence, SAR follow-up (AID 504497); format: functional
[12] = biological target: T4, Sentrin-specific protease 8; experiment: inhibition of human SENP8 cleavage activity – biochemical, luminescence, SAR follow-up (AID 504501); format: functional
Caspase-3 [13] = biological target: T7, Caspase-3 (Homo sapiens, UniProt P42574); experiment: inhibition of recombinant caspase-3 activity – biochemical, luminescence, set 2, selectivity assay for SENP protease inhibitor project, SAR follow-up (AID 588599); format: functional
T7 sequence (P42574 whole entry): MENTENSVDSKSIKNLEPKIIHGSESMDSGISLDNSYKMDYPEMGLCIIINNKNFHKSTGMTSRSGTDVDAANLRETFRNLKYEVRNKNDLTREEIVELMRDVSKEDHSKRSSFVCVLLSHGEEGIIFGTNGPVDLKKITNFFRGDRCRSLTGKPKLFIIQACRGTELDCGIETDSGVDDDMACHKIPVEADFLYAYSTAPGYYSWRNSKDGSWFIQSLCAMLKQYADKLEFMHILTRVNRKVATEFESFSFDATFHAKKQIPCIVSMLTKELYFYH

Caspase-3 [14] = biological target: T7, Caspase-3; experiment: SAR Analysis of small molecule inhibitors of Sentrin-specific proteases (SENPs) using a Caspase-3 Selectivity assay. [Related pubchem assays (depositor defined):AID2540, AID2599, AID434973, AID489001]; format: functional

SMILES | IC50 (Bcl-2-related protein A1) | IC50 (HEK293 [1]) | IC50 [2] | IC50 [3] | EC50 (HEK293 [4]) | EC50 (Insulin-degrading enzyme [5]) | EC50 (Insulin-degrading enzyme [6]) | IC50 [7] | IC50 [8] | IC50 [9] | IC50 [10] | IC50 [11] | IC50 [12] | IC50 (Caspase-3 [13]) | IC50 (Caspase-3 [14])
C#CCOCCOCCOCCNc1nc(N2CCN(C(=O)CCCCCCCCCCNC(=O)[C@H](CCCCN)n3cc(C[C@@H](C)CC)nn3)CC2)nc(N2CCN(C(=O)CCCCCCCCCCNC(=O)[C@H](CCCN=C(N)N)n3cc(C[C@@H](C)CC)nn3)CC2)n1 | 4.6 µM (active) | 2.17 µM (active) | 1.44 µM (active) | 2 µM (active) | > 54.7 µM (inactive) | > 2.03 µM (active) | > 2.03 µM (active) | – | – | – | – | – | – | – | –
O=C(c1ccccc1)C1NC1c1ccccc1 (configuration not stated) | – | > 89.3 µM (inactive) | – | – | > 54.7 µM (inactive) | > 54.7 µM (inactive) | > 54.7 µM (inactive) | – | – | – | – | – | – | – | –
CCCCc1ccc2nc(NC(=O)c3cccn3C)sc2c1 | – | – | – | – | – | – | – | 0.944 µM (active) | 0.987 µM (active) | 0.79 µM (active) | 0.938 µM (active) | 0.92 µM (active) | 0.81 µM (active) | 0.749 µM (active) | 0.72 µM (active)
O=C(CCc1ccccc1)NNc1cc(N2CCOCC2)nc(N2CCOCC2)n1 | – | – | – | – | – | – | – | – | – | > 99 µM (inactive) | – | > 99 µM (inactive) | > 99 µM (inactive) | – | > 99 µM (inactive)
Cc1ccc2nc(NC(=O)c3cccc(S(=O)(=O)NCC4CCCO4)c3)sc2c1 (configuration not stated) | – | – | – | – | – | – | – | > 99 µM (inactive) | > 99 µM (inactive) | – | > 99 µM (inactive) | – | – | > 99 µM (inactive) | –
